Experiments:
PDE4D3 = PDE4D3 (Homo sapiens, UniProt Q08499); experiment: In vitro PDE selectivity assay (SPA), PDE4D3; format: biochemical; conditions: hPDE4D3; read-out: PDE 4D3 (expressed as pIC50) (converted)
In short: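 Inhibition of each PDE isoform was measured by scintillation proximity assay with ³H-cyclic nucleotide substrate, using incubation buffer, substrate concentration, incubation time and stop solution adapted per isoform. Compounds were tested in dose-response against 1% DMSO controls and enzyme-free blanks. IC50 came from a least-squares fit of blank-subtracted % of control versus concentration.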

[1] = system: conditioned avoidance response in rats; experiment: Conditioned avoidance response (CAR) test; format: in vivo; conditions: Rattus norvegicus
Excerpt: The apparatus consisted of an inner box surrounded by an outer box. The inner box was composed of four walls of transparent, synthetic material (length×width×height: 30×30×30 cm), an open top, and a grid floor made of 15 pairs of iron bars (2 mm diameter; 6 mm inter-bar distance). Odd and even bars were connected with a source of alternative current (1.0 mA; Coulbourn Instruments Solid State Shocker/Distributor), which could be interrupted by a switch. The outer box was composed of the same material (length×width×height: 40×40×36 cm), also with an open top, with a distance of 5 cm between the inner and outer box on all sides. To decrease the amount of environmental stimuli, three walls of the outer box were made non-transparent. The front wall was left transparent to allow the necessary inspection of the animal during the test. The upper edge of the outer and inner box served as a target for the rats on which to jump with fore- and hind-paws, respectively.
From their arrival in the laboratory on the experimental day, male Wiga Wistar rats (230±30 g) were housed in individual cages provided with bedding material.
The rats were tested 3 times, i.e. at 60, 90 and 120 min after the injection of test compound or solvent. Latency to avoidance was recorded. The median avoidance response obtained over the three experimental sessions for each rat were used for further calculations.

[2] = system: apomorphine-induced stereotypy in rats; experiment: Apomorphine-induced stereotypy in rats (APO); format: in vivo; conditions: Rattus norvegicus; dose at which 50% of the tested animals show the effect; ≧: active in 30% of the animals at the indicated dose; ≦: active in 60%
Procedure: Apomorphine (1.0 mg/kg, i.v.)-induced stereotypy (compulsive sniffing, licking, chewing) was scored every 5 min over the first hour after injection of apomorphine, following a 1 hour interval pre-treatment with the test compound. The score system was: (3) pronounced, (2) moderate, (1) slight, and (0) absent.

[3] = system: SCH-23390-induced hypolocomotion in mice; experiment: SCH-23390-induced hypolocomotion in mice; format: in vivo; conditions: Mus musculus
Procedure: SCH-23390 (0.08 mg/kg, i.v.)-induced hypolocomotion was evaluated over a 30-min period starting immediately after the SCH-23390 challenge in male NMRI mice pretreated 0.5 h earlier with test compound or solvent. Averaged activity in solvent-treated control mice was 1540±559 counts (mean±SD; n=103). Criterion for drug-induced reversal of the SCH-23390-induced hypolocomotion: total distance: >2500 counts (2.9% false positives in controls).

[4] = system: PCP-induced hyperlocomotion in rats; experiment: PCP-induced hyperlocomotion in rats; format: in vivo; conditions: Rattus norvegicus
Procedure: Motor activity [horizontal activity (locomotion) and vertical activity (rearing)] was recorded in male Wiga rats (body weight: 175-275 g; housed overnight in groups of 7 rats) using microprocessor-based activity monitors (MED Associates; length×width×height: 43.2×43.2×41.5 cm) over a period of 30 min. The resolution of the system was set at 100 msec. Total distance was defined as the distance traveled, measured by changes in the number or location of interrupted xy-beams (located in two arrays of 32 infrared light beams (1.25 cm apart) perpendicular to each other in a horizontal plane 2.0 cm above the floor). Vertical activity was defined as the number of periods of continuous breaks reported by an infrared array of 32 light beams in a horizontal plane 13 cm above the floor. The intensity of the light within the activity meters (measured in the centre at floor level) ranged between 110 and 130 LUX.
Male Wiga rats (200 to 260 g) were pretreated with test compound or solvent (10 ml/kg, s.c.) and placed in individual cages. At a predefined interval thereafter (60 min.), the rats were challenged with PCP (1.25 mg/kg, i.v.) and motor activity was measured over a period of 30 min starting immediately after the PCP challenge. […]

Chain of PDE4D3 (Q08499 1-673 isoform Q08499-2): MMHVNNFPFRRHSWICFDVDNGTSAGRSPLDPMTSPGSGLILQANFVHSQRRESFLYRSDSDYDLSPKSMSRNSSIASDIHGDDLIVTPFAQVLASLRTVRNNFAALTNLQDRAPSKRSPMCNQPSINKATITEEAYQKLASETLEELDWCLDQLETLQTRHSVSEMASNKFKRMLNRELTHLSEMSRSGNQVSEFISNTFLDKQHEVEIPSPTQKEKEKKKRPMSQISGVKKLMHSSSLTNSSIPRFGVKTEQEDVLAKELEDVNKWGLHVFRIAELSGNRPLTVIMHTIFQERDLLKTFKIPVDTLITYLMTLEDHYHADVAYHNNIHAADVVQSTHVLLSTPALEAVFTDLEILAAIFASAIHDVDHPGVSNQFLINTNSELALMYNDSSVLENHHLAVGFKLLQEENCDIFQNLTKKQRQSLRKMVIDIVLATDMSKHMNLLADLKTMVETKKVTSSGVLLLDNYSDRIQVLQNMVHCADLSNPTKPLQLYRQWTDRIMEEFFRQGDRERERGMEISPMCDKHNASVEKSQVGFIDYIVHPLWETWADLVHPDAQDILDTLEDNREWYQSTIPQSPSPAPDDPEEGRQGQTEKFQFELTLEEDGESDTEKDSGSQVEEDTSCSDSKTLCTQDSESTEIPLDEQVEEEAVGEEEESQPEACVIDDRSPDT

| SMILES | IC50 (PDE4D3) [µM] | ED50 [1] [mg/kg] | ED50 [2] [mg/kg] | ED50 [3] [mg/kg] | ED50 [4] [mg/kg] |
| --- | --- | --- | --- | --- | --- |
| COCCc1ccc(-c2c(C)nc3c(N4CCOCC4)ccnn23)cn1 [compound 1, 3-[6-(2-methoxyethyl)-3-pyridinyl]-2-methyl-8-(4-morpholinyl)-imidazo[1,2-b]pyridazine] | 30.9 | 4.7 | 1.3 | 7.1 | 2 |
| COCCOc1ccc(-c2c(C)nc3c(-c4ccncc4)ccnn23)cn1 [compound 21, 3-[6-(2-methoxyethoxy)-3-pyridinyl]-2-methyl-8-(4-pyridinyl)-imidazo[1,2-b]pyridazine] | 28.2 | 5.4 | 1.5 | 5 | 6.1 |

From patent US20120220581A1, “IMIDAZO[1,2-b]PYRIDAZINE DERIVATIVES AND THEIR USE AS PDE10 INHIBITORS” (Janssen-Cilag, S.A., priority 2009, published 2012)
